The text below walks through data of US20120003262A1, “ANTICANCER HEALTH FOOD CONTAINING PHELLINUS LINTEUS AND VEGETABLE WORMS” (HAN KOOK SHIN YAK CO., LTD., priority 2008, published 2012).

SMILES strings stand for the structures.

The test has as its system lung cancer cell (Lewis Lung Carcinoma: LLC). Briefly: Anticancer animal test: Lewis Lung Carcinoma transplanted to mice, tumor volume and weight after 14 days of administration. It counts as in vivo, mouse. The conditions noted are these: LLC-transplanted BDF1 male mice, extracts 200 mg/kg orally daily, Taxol 50 mg/kg intraperitoneally daily, for 14 days. The procedure:
In order to test an anticancer effect of the mixture extract of Phellinus linteus and vegetable worms, from Examples 1 to 7, and Comparative 1, an animal test was carried out. A mouse used for the experiment was bought from Jung Ang Lab. Animal Inc. (black, Japan, BDF1 male, weight: 20±2 g). The breeding temperature was 22±2° C., and solid feed stuff (Samyang feed Co.) and water were sufficiently supplied. […]
A solvent for the extraction was an extra pure reagent (E.P.). For the test sample, a sterilized saline solution manufactured by Daihan Pharm Co. Ltd. was used. For the culture of a cancer cell, an RPMI 1640 medium (WelGENE Inc.) was used, and Trypsin-EDTA was manufactured by GIBCO. Besides, a test tube required for cell culture, a culture flask, and a filter for obtaining a cancer cell were manufactured by Falcon. Devices used for cancer transplantation were disinfected at 120° C. for 30 min, and a cancer volume was measured by a Digital Caliper.
A lung cancer cell (Lewis Lung Carcinoma: LLC) used for the experiment was distributed from the Korea Research Institute of Bioscience and Biotechnology. The lung cancer cell (Lewis Lung Carcinoma: LLC) was cultured by RPMI 1640 medium added with 10% FBS in a 37° C. incubator, and for the detachment from an attachment surface, Trypsin-EDTA was used. When the cells are filled up in a 200 ml culture flask, they were transplanted to two animals. After the cells were grown in vivo, they were used for an animal test.
In an anticancer animal test, a tumor grown up to a size of about 15×15×15 mm^3 was separated, and a cancer cell was separated from other cells by using a filer (Falcon). […] From the day after the cancer transplantation, for 14 days, powder obtained by mixing Phellinus linteus and vegetable worms at a weight ratio of 1:1 (Example 1), 1:3(Example 2), 3:1(Example 3), 1:5(Example 4), 5:1(Example 5), 1:10(Example 6), 10:1(Example 7) was orally administered daily to a black mouse (Japan) in an amount of 200 mg/kg. Meanwhile, as a positive control group, Taxol was intraperitoneally injected daily in an amount of 50 mg/kg once a day for 14 days. After 14 days, the administration of the extract powder of Phellinus linteus and vegetable worms was stopped, and a Digital Caliper was used to measure the results. […] After the measurement of a tumor volume, a tumor lump was obtained through an operation and its weight was measured. An inhibition ratio of tumor weight (IRTW) was calculated by (TW of control−TW of test)×100/TW of control.
All data were indicated by mean±S.D., and the analysis was carried out by Anova test. Also, when p values are 0.05 or less, they were determined to have significance.

Turning to `CC(=O)O[C@H]1C(=O)[C@@]2(C)[C@H]([C@H](OC(=O)c3ccccc3)[C@]3(O)C[C@H](OC(=O)[C@H](O)[C@@H](NC(=O)c4ccccc4)c4ccccc4)C(C)=C1C3(C)C)[C@]1(OC(C)=O)CO[C@@H]1C[C@@H]2O` [Taxol], under “(TV of control−TV of test)×100/TV of control”, the “Tumor volume inhibiting ratio” value is recorded as 67%. Moreover, under “(TW of control−TW of test)×100/TW of control”, the “Tumor weight inhibiting ratio” value is recorded as 64%. Also, under “mean±S.D., 5 mice”, the Tumor size turned out to be 649 ± 182 mm^3 and the Tumor weight is recorded as 0.61 ± 0.3 g.
